# Data reported in US12419890B2, “Administration of sumo-activating enzyme inhibitor and checkpoint inhibitors” (Takeda Pharmaceutical Company Limited, priority 2019, dated 2025).
# How the values were obtained:
# [1] = system: B16-F10 syngeneic mouse melanoma-derived subcutaneous tumor; assay: B16-F10 Study 7: mouse B16-F10 syngeneic tumor model, individual tumor volume; format: in vivo; conditions: delay from day 7 to day 10-12; of the 8 implanted tumors; Compound I-263a 7.5 mg/kg IV BIWx3 till Day 17
# Description: B16-F10 Study 7: B16-F10 is a mouse melanoma cell line. B16-F10 mouse syngeneic tumor model was generated by subcutaneous inoculation with 0.08×10^6 B16-F10 cells (cell suspension) in 11 weeks old female C57BL/6 mice (Taconic Biosciences, Rensselaer, NY) in the flank. When the mean tumor volume reached approximately 50 mm^3, the animals were randomized into one vehicle control and five treatment groups (n=8/group). Mice were then dosed with 20% HPbCD or Compound I-263a or anti-mouse PD-1 antibody over a 17-day period. Tumor growth and body weight were measured twice per week during the treatment and post-treatment periods, and mice were humanely euthanized once they had reached their humane endpoint.
# (§1) Study 7: A 0.75 mg/mL stock solution of Compound I-263a was formulated weekly in 20% HPβCD and administered intravenously (IV) based on exact animal body weight on each day of treatment, using a dosing volume of 10 mL/kg body weight. Final doses received were 7.5 mg/kg. Dosing volume for Compound I-263a was 0.2 mL. […]
# (§2) Tumors were measured twice weekly using vernier calipers. Tumor volumes were calculated using standard equation: V=W^2×L/2, where V=volume, W=width, and L=length for the tumor. […] Tumor size and body weight were measured twice a week for the duration of the study. […]
# [2] = system: CT26 syngeneic mouse colon fibroblast carcinoma-derived subcutaneous tumor; assay: CT26 Study 1: mouse CT26 syngeneic tumor model, individual tumor volume; format: in vivo; conditions: Compound I-263a 7.5 mg/kg IV Day 1, 4; anti-mPD-1 10 mg/kg IP Day 1, 4, 8, 11; 8 mice/group
# Description: CT26 Study 1: CT26 is a mouse colon fibroblast carcinoma cell line. CT26 mouse syngeneic tumor model was generated by subcutaneous inoculation with 0.2×10^6 CT-26 cells (cell suspension) in 12 weeks old female BALB/c mice (Jackson Laboratory, 600 Main St, Bar Harbor, ME) in the flank. When the mean tumor volume reached approximately 60 mm^3, the animals were randomized into one vehicle control and three treatment groups (n=8/group). Mice were then dosed with 20% HPbCD or Compound I-263a or anti-mouse PD-1 antibody over a 14-day period. Tumor growth and body weight were measured twice per week during the treatment and post-treatment periods, and mice were humanely euthanized once they had reached their humane endpoint.
# as §1, with “1:” for “7:”, “0.825” for “0.75”
# as §2
structure (smiles),measurement,setting,value
"Cc1sc(C(=O)c2cncnc2N[C@@H]2C[C@H](COS(N)(=O)=O)[C@@H](O)C2)cc1[C@@H]1NCCc2ccc(Cl)cc21 [Compound I-263a, [(1R,2S,4R)-4-{[5-({4-[(1R)-7-chloro-1,2,3,4-tetrahydroisoquinolin-1-yl]-5-methyl-2-thienyl}carbonyl)pyrimidin-4-yl]amino}-2-hydroxycyclopentyl]methyl sulfamate]",tumors with tumor growth delay,[1],2
same,tumor growth inhibition relative to vehicle-treated tumors,[2],did not show any tumor growth inhibition
